This is an account of results in the SangsterLogP compilation.

Structures are written as SMILES.

The logP is a log measure of how a compound divides between an organic and an aqueous phase. Read a low logP as lower lipophilicity.

This data set is described as follows: method code SF, from DOI: 10.1021/jf00073a025.
Take `CNC(=O)O/N=C1/COCS1`: the logP amounted to 0.06. For `CNC(=O)O/N=C1\SCSC1C` (centres undefined) the value was 0.91. As to `CNC(=O)ON=C1CSCCS1`, the log partition coefficient (logP) was found to be 0.49. `CNC(=O)ON=C1SCSC1(C)C` registered a logP of 1.31. Take `CNC(=O)ON=C1SCOC1C` (stereo in doubt): the lipophilicity (logP) worked out at 0.46. `CNC(=O)ON=C1CSC(C)(C)S1` returned a lipophilicity (logP) of 1.33.

In turn, `CNC(=O)O/N=C1\SCCSC1(C)C` had a logP of 1.51.

The compound `CNC(=O)O/N=C1\SCOC1CCOC` (centres undefined) registered a logP of 0.51. Compound `CNC(=O)O/N=C1/CSCS1` came in with a log partition coefficient (logP) of 0.51. For `CNC(=O)O/N=C1/SCOC1(C)C` the value was 0.82; for `CNC(=O)ON=C1COCCS1` (stereo in doubt), -0. As to `CNC(=O)O/N=C1\SCOC1C(C)C` (centres undefined), the lipophilicity (logP) came out at 1.48. On to `CNC(=O)O/N=C1/SC(C)OC1C` (centres undefined), for which the logP came out at 0.96. Turning to `CCCC1OCS/C1=N\OC(=O)NC` (centres undefined), the logP came out at 1.52.
